The results in this text go back to patent publication US11000033B2, “Ketone or oxime compound, and herbicide” (NISSAN CHEMICAL CORPORATION, priority 2014, dated 2021).

Type in all cases: in vivo
In data set [1] the test system is Avena fatua. The experiment in a line: Test Example 5: herbicidal effect by foliage application, plastic box (symbol I). Conditions: 320 g/ha, 3 weeks after application. The method, boiled down: (§1)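 Leaf-applied emulsion, water-diluted to a preset herbicide dose, on two-week-old seedlings raised in a 25° C. to 30° C. greenhouse; injury rated at 3 weeks using earlier criteria.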

Data set [2] deals with Leptochloa chinensis. The experiment in a line: Test Example 3: herbicidal effect by foliage application, Wagner pot (symbol D). Conditions: application herbicide amount 320 g/ha. The method, boiled down: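 In a shallow-flooded alluvial soil system held at 25–30 °C, plants including rice grew for 14 days and were then sprayed over the foliage with emulsion diluted to a fixed herbicide amount. Visual rating followed at 3 weeks.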

The subject of data set [3] is Avena fatua. The experiment in a line: Test Example 4: herbicidal effect by soil treatment (symbol I). Particulars: application herbicide amount 320 g/ha. The procedure, abridged:
(§2)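 Seeds were sown in sterilized diluvial soil, covered with about 1.5 cm of soil, and the soil surface was sprayed with a water-diluted emulsion of the compound at a predetermined rate. Plants grew in a greenhouse at 25° C. to 30° C.; effects were scored visually 3 weeks after application.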

Data set [4] relates to Setaria viridis. The experiment in a line: Test Example 5: herbicidal effect by foliage application, plastic box (symbol G). Particulars: 320 g/ha, 3 weeks after application. The method, boiled down: as §1
In data set [5] the test system is Digitaria ciliaris. The experiment in a line: Test Example 4: herbicidal effect by soil treatment (symbol F). Particulars: application herbicide amount 320 g/ha. The procedure, abridged: as §2
Data set [6] relates to Chenopodium album. The experiment in a line: Test Example 4: herbicidal effect by soil treatment (symbol O). Particulars: application herbicide amount 320 g/ha. The method, boiled down:
as §2

For data set [7], the system named is Echinochloa crus-galli var. crus-galli. The experiment in a line: Test Example 4: herbicidal effect by soil treatment (symbol H). Particulars: application herbicide amount 320 g/ha. The procedure, abridged:
as §2

Data set [8] relates to Echinochloa oryzacola Vasing. The experiment in a line: Test Example 2: herbicidal activity, application during weed generation in submerged conditions (symbol A). Particulars: Table 23; application herbicide amount 320 g/ha; grade 0-5 by criteria of Test Example 1. The method, boiled down:
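Compound was applied as a water-diluted emulsion into the standing water of flooded pots (4 cm) once co-sown weeds reached one to two leaves. Greenhouse temperature was 25° C. to 30° C., soil was alluvial, and each species was rated visually after 3 weeks.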

Data set [9] deals with transplanted rice plant. The experiment in a line: Test Example 1: effect on crop, application before weed generation in submerged conditions (symbol a). Conditions: application herbicide amount 320 g/ha. The procedure, abridged: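 Rice at 2.5 leaf stage transplanted into submerged soil (4 cm depth) sown with three weed species; herbicide applied before weed emergence.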
In data set [10] the test system is Chenopodium album. The experiment in a line: Test Example 5: herbicidal effect by foliage application, plastic box (symbol O). Particulars: 320 g/ha, 3 weeks after application. The method, boiled down: as §1
In data set [11] the test system is corn. The experiment in a line: Test Example 5: effect on crop by foliage application, plastic box (symbol c). Conditions: 320 g/ha, 3 weeks after application. The method, boiled down: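 Foliage-application test plants come from spot sowing in sterilized diluvial soil under a soil layer of about 1.5 cm, grown at 25° C. to 30° C. in a greenhouse.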
Data set [12] relates to Veronica persica. The experiment in a line: Test Example 5: herbicidal effect by foliage application, plastic box (symbol R). Particulars: 320 g/ha, 3 weeks after application. The method, boiled down: as §1
The test system of data set [13] is Lolium multiflorum Lam. The experiment in a line: Test Example 4: herbicidal effect by soil treatment (symbol K). Particulars: application herbicide amount 320 g/ha. The procedure, abridged: as §2
Data set [14] relates to Veronica persica. The experiment in a line: Test Example 4: herbicidal effect by soil treatment (symbol R). Particulars: application herbicide amount 320 g/ha. The procedure, abridged: as §2

Consider `COC(=O)CON=C(C)CC1CC(O)=C(c2c(C)cc(C)cc2C)C1=O` (centres unmarked) [1-023], for which, in [1], the “I: Avena fatua, herbicidal effect grade” value was 1 (Herbicidal ratio of 5% or higher and lower than 20%). Besides, in [2], the “herbicidal effect on D (Leptochloa chinensis), grade 0-5” value (“herbicidal effect on D” below) is 5 (Herbicidal ratio of 90% or more (almost completely withered)). Besides, in data set [3], the “I (Avena fatua) herbicidal effect grade” value is 0 (Herbicidal ratio of 5% or lower (almost no effect)). Besides, the “G: Setaria viridis, herbicidal effect grade” value in data set [4] is 1 (Herbicidal ratio of 5% or higher and lower than 20%). The “F (Digitaria ciliaris) herbicidal effect grade” value in [5] was 4 (Herbicidal ratio of 70% or higher and lower than 90%). In addition, the “O (Chenopodium album) herbicidal effect grade” value in data set [6] was 0 (Herbicidal ratio of 5% or lower (almost no effect)). In data set [7], the “H (Echinochloa crus-galli var. crus-galli) herbicidal effect grade” value was 3 (Herbicidal ratio of 40% or higher and lower than 70%). The “Herbicidal effect grade, A: Echinochloa oryzacola Vasing.” value in [8] was 4 (Herbicidal ratio of 70% or higher and lower than 90%). In [9], the “Effect grade on crop, a: transplanted rice plant” value (shortened to “Effect grade on crop”) was 1 (Herbicidal ratio of 5% or higher and lower than 20%). Further, the “O: Chenopodium album, herbicidal effect grade” value in data set [10] is listed as 0 (Herbicidal ratio of 5% or lower (almost no effect)). Moreover, the “c: corn, effect on crop grade” value in data set [11] is 1 (Herbicidal ratio of 5% or higher and lower than 20%). The “R: Veronica persica, herbicidal effect grade” value in data set [12] was 0 (Herbicidal ratio of 5% or lower (almost no effect)). Also, the “K (Lolium multiflorum Lam.) herbicidal effect grade” value in [13] is 3 (Herbicidal ratio of 40% or higher and lower than 70%).
Regarding `CON=C(C)CC1CC(OC(=O)COc2ccccc2)=C(c2c(C)cc(-c3ccc(Cl)cc3)cc2C)C1=O` (mixture of isomers) [6-061], the “I: Avena fatua, herbicidal effect (criteria of Test Example 1)” value in data set [1] is 5 (Herbicidal ratio of 90% or more (almost completely withered)). The “herbicidal effect on D” value in [2] is 5 (Herbicidal ratio of 90% or more (almost completely withered)). In data set [3], the “I: Avena fatua, herbicidal effect grade” value was 4 (Herbicidal ratio of 70% or higher and lower than 90%). For the same compound, the “G: Setaria viridis, herbicidal effect (criteria of Test Example 1)” value in [4] is 5 (Herbicidal ratio of 90% or more (almost completely withered)). For the same compound, the “F: Digitaria ciliaris, herbicidal effect grade” value in data set [5] is given as 5 (Herbicidal ratio of 90% or more (almost completely withered)). For the same compound, the “H: Echinochloa crus-galli var. crus-galli, herbicidal effect grade” value in data set [7] is reported as 5 (Herbicidal ratio of 90% or more (almost completely withered)). Besides, the “R: Veronica persica, herbicidal effect grade” value in data set [14] was 4 (Herbicidal ratio of 70% or higher and lower than 90%). In addition, the “Herbicidal effect grade, A: Echinochloa oryzacola Vasing.” value in data set [8] is listed as 5 (Herbicidal ratio of 90% or more (almost completely withered)). In addition, the “Effect grade on crop” value in [9] is given as 5 (Herbicidal ratio of 90% or more (almost completely withered)). Also, the “O: Chenopodium album, herbicidal effect (criteria of Test Example 1)” value in data set [10] is 4 (Herbicidal ratio of 70% or higher and lower than 90%). In [11], the “c: corn, effect on crop (criteria of Test Example 1)” value was 5 (Herbicidal ratio of 90% or more (almost completely withered)). In data set [12], the “R: Veronica persica, herbicidal effect (criteria of Test Example 1)” value is 4 (Herbicidal ratio of 70% or higher and lower than 90%). The “K: Lolium multiflorum Lam., herbicidal effect grade” value in [13] is given as 5 (Herbicidal ratio of 90% or more (almost completely withered)).
On to `CON=C(C)C(=NOC)C1CC(O)=C(c2c(C)cc(C)cc2C)C1=O` (centres unmarked) [8-003], for which the “I: Avena fatua, herbicidal effect grade” value in data set [1] is 0 (Herbicidal ratio of 5% or lower (almost no effect)). The “D (Leptochloa chinensis) herbicidal effect grade” value in [2] (Table 24) is recorded as 0 (Herbicidal ratio of 5% or lower (almost no effect)). In addition, in data set [3], the “Herbicidal effect grade, I: Avena fatua” value was 0 (Herbicidal ratio of 5% or lower (almost no effect)). In data set [4], the “G: Setaria viridis, herbicidal effect grade” value is on record as 0 (Herbicidal ratio of 5% or lower (almost no effect)). For the same compound, the “Herbicidal effect grade, F: Digitaria ciliaris” value in data set [5] is on record as 0 (Herbicidal ratio of 5% or lower (almost no effect)). The “Herbicidal effect grade, O: Chenopodium album” value in data set [6] was 0 (Herbicidal ratio of 5% or lower (almost no effect)). Also, in data set [7], the “Herbicidal effect grade, H: Echinochloa crus-galli var. crus-galli” value is recorded as 0 (Herbicidal ratio of 5% or lower (almost no effect)). In addition, the “Herbicidal effect grade, A: Echinochloa oryzacola Vasing.” value in [8] is recorded as 0 (Herbicidal ratio of 5% or lower (almost no effect)). Further, the “Effect grade on crop” value in data set [9] is reported as 0 (Herbicidal ratio of 5% or lower (almost no effect)). For the same compound, in data set [10], the “O: Chenopodium album, herbicidal effect grade” value is 0 (Herbicidal ratio of 5% or lower (almost no effect)). Moreover, the “c: corn, effect on crop grade” value in data set [11] is on record as 0 (Herbicidal ratio of 5% or lower (almost no effect)). Also, in [12], the “R: Veronica persica, herbicidal effect grade” value is given as 0 (Herbicidal ratio of 5% or lower (almost no effect)). Also, the “Herbicidal effect grade, K: Lolium multiflorum Lam.” value in data set [13] is reported as 0 (Herbicidal ratio of 5% or lower (almost no effect)).
As to `CON=C(C)CC1CC(O)=C(c2c(C)cc(OCc3ccncc3)cc2C)C1=O` (mixture of isomers) [6-053], the “I: Avena fatua, herbicidal effect grade” value in data set [1] was 3 (Herbicidal ratio of 40% or higher and lower than 70%); in [3] it was 1 (Herbicidal ratio of 5% or higher and lower than 20%). The “herbicidal effect on D” value in data set [2] is given as 5 (Herbicidal ratio of 90% or more (almost completely withered)). Also, the “G: Setaria viridis, herbicidal effect grade” value in data set [4] is on record as 5 (Herbicidal ratio of 90% or more (almost completely withered)). Moreover, in data set [5], the “F: Digitaria ciliaris, herbicidal effect grade” value is 4 (Herbicidal ratio of 70% or higher and lower than 90%). For the same compound, the “H: Echinochloa crus-galli var. crus-galli, herbicidal effect grade” value in data set [7] is 2 (Herbicidal ratio of 20% or higher and lower than 40%). Also, the “R: Veronica persica, herbicidal effect grade” value in [14] and in data set [12] was 0 (Herbicidal ratio of 5% or lower (almost no effect)) throughout. Besides, the “Herbicidal effect grade, A: Echinochloa oryzacola Vasing.” value in data set [8] was 3 (Herbicidal ratio of 40% or higher and lower than 70%). For the same compound, the “Effect grade on crop” value in data set [9] was 3 (Herbicidal ratio of 40% or higher and lower than 70%). For the same compound, the “O: Chenopodium album, herbicidal effect grade” value in data set [10] was 0 (Herbicidal ratio of 5% or lower (almost no effect)). Moreover, the “c: corn, effect on crop grade” value in [11] was 2 (Herbicidal ratio of 20% or higher and lower than 40%). Further, in data set [13], the “K: Lolium multiflorum Lam., herbicidal effect grade” value was 0 (Herbicidal ratio of 5% or lower (almost no effect)).
For `CC(=O)CC1CC(O)=C(c2c(C)cc(Br)cc2C)C1=O` (centres unmarked) [7-002], the “I: Avena fatua, herbicidal effect (criteria of Test Example 1)” value in data set [1] was 4 (Herbicidal ratio of 70% or higher and lower than 90%). Further, the “herbicidal effect on D” value in [2] is 5 (Herbicidal ratio of 90% or more (almost completely withered)). Also, in [3], the “Herbicidal effect grade, I: Avena fatua” value is 0 (Herbicidal ratio of 5% or lower (almost no effect)). The “G: Setaria viridis, herbicidal effect (criteria of Test Example 1)” value in [4] is 3 (Herbicidal ratio of 40% or higher and lower than 70%). In data set [5], the “Herbicidal effect grade, F: Digitaria ciliaris” value was 5 (Herbicidal ratio of 90% or more (almost completely withered)). Further, in [6], the “Herbicidal effect grade, O: Chenopodium album” value is 0 (Herbicidal ratio of 5% or lower (almost no effect)). Besides, in data set [7], the “Herbicidal effect grade, H: Echinochloa crus-galli var. crus-galli” value is recorded as 5 (Herbicidal ratio of 90% or more (almost completely withered)). For the same compound, the “Herbicidal effect grade, A: Echinochloa oryzacola Vasing.” value in data set [8] is reported as 0 (Herbicidal ratio of 5% or lower (almost no effect)). Besides, the “Effect grade on crop” value in data set [9] was 2 (Herbicidal ratio of 20% or higher and lower than 40%). Besides, the “O: Chenopodium album, herbicidal effect (criteria of Test Example 1)” value in data set [10] is reported as 0 (Herbicidal ratio of 5% or lower (almost no effect)). Moreover, in data set [11], the “c: corn, effect on crop (criteria of Test Example 1)” value was 3 (Herbicidal ratio of 40% or higher and lower than 70%). Further, the “R: Veronica persica, herbicidal effect (criteria of Test Example 1)” value in [12] was 0 (Herbicidal ratio of 5% or lower (almost no effect)). Besides, the “Herbicidal effect grade, K: Lolium multiflorum Lam.” value in data set [13] is listed as 5 (Herbicidal ratio of 90% or more (almost completely withered)).
